Measured values taken from US5658938A, “Substituted 1H-imidazoles” (U C B S.A., priority 1994, dated 1997).
Where a name gives a salt, the structure may show the parent alone. Read-outs that look alike come from different tables or passages of the source.

Assays:
[1] = test system: coronary occlusion in the rat; assay: Anti-ischemic and anti-hypertensive activity: coronary occlusion in the anesthetized rat (elevation of the T wave of the electrocardiogram, arterial pressure); format: in vivo, male albino rat of the Sprague-Dawley strain; conditions: for change in vivo at 3 µmol/kg / change in vivo at 1 µmol/kg: Rattus norvegicus, iv
From the text: The cardiac anti-ischemic activity of compounds manifests itself by their capacity to oppose the elevation of the T wave of the electrocardiogram, induced by a coronary occlusion in the rat. Continuous monitoring of the arterial pressure also enables to reveal the anti-hypertensive effects. The animal used for the test is a male albino rat of the Sprague-Dawley strain, weighing 220 to 280 g. On the day of the experiment, the animal is anesthetized by intraperitoneal administration of pentobarbital (60 mg/kg), then placed under endotracheal intubation. A ligature system is fitted around the descending left anterior coronary artery according to the procedure of Johnston et el. (Can. J. Physiol. Pharmacol., 61 (1983), 1340-1353). After closing the thorax, three electrodes are arranged on the body of the animal ("V4" thoracic derivation), in order to continuously record the shape of the electrocardiogram signal (in particular the T wave). Catheters are introduced into the right carotid artery and the right jugular vein to measure the arterial pressure and to administer intravenously the compound tested or the vehicle solution. Four 45 second coronary occlusions are performed, separated by episodes of reperfusion of 30, 35 and 30 minutes respectively. The compound to be studied or the vehicle are administered intravenously in bolus, 30 minutes before occlusion 3. The T electrocardiographic signal and the arterial pressure are continuously measured during the entire experiment.
The effects of the compounds according to the invention are quantified by comparing the amplitude of the elevation of the T wave at occlusions 3 and 4 (that is 30 minutes and 60 minutes after administration) with its value at occlusion 2 (that is before administration).
the second column indicates the dose of compound administered, expressed in mole/kg;
the third and the fourth columns indicate the anti-ischemic effect caused by administering the compound tested. The anti-ischemic effect represents the reduction in the elevation of the T wave caused by coronary occlusions 3 and 4, expressed in % with respect to occlusion 2, before administration of the compound (ΔT3 and ΔT4 respectively);
the fifth and sixth columns indicate the anti-hypertensive effect caused by administration of the compound tested. The anti-hypertensive effect is expressed as the maximum lowering of arterial pressure, measured a) between 5 and 30 minutes, and b) between 30 and 60 minutes after intravenous injection of the compound tested (ΔPa and ΔPb respectively). This lowering is expressed in % with respect to the value measured before injection.

[2] = test system: presynaptic α2 -adrenergic receptors; assay: Inhibition of the contraction of the electrically stimulated guinea pig ileum (presynaptic α2-agonist activity); conditions: guinea pig ileum longitudinal muscle strips, electrical stimulation
From the text: Longitudinal muscle strips attached to an isometric strain gauge are suspended in Tyrode's solution and are stretched under a tension of 1 g (G. M. Drew, Brit. J. Pharmacol. 64, (1978), 293-300; M. Andrejak et al., Naunyn-Schmiedeberg's Arch. Pharmacol. 314, (1980), 83-87).
Electrical stimulation of the parasympathetic nerves associated with the ileum fragments causes a contraction of the muscle. This contraction is reduced in the presence of a presynaptic α2 -agonist and the magnitude by which the contraction is reduced depends on the concentration of the agonist used. This effect is antagonised by the simultaneous presence of an α2 -antagonist such as alpha-yohimbine.
The IC30 concentration (in mole/l) that reduces by 30% the intensity of the contraction of the muscle is determined.

[3] = biological target: T1, postsynaptic α1 -adrenergic receptor (Rattus norvegicus, UniProt P23944); assay: Postsynaptic α1-antagonist activity: inhibition of norepinephrine-induced contraction of the isolated aorta of the rat; conditions: read-out: ED30 (concentration which causes 30% inhibition of the contraction induced by norepinephrine)
T1 construct: isolated aorta of the rat; from tissue; host or cells: rat isolated aorta
T1 sequence (P23944 1-561): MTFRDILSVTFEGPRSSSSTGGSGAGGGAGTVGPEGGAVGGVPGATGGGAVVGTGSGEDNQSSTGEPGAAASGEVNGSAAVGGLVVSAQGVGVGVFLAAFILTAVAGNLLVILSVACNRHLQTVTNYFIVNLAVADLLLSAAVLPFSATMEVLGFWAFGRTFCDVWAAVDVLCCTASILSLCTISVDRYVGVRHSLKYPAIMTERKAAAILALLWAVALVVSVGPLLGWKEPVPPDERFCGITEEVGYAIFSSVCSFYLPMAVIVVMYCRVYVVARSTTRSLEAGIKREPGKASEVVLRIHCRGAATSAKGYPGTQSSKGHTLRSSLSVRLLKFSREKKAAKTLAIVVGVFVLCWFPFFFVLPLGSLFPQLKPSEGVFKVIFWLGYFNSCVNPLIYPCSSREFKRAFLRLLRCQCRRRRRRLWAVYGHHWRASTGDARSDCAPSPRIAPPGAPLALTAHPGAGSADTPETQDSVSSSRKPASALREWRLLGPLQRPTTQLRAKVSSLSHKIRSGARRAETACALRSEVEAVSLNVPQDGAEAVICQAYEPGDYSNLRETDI
Protocol: A non selective α-agonist substance such as norepinephrine induces a sustained contraction of the isolated aorta of the rat (J. M. Van Rossum Arch. Int. Pharmacodyn. 143, (1963), 299-330). This contraction can be inhibited by α1 -adrenergic blocking substances such as prazosin. In this test, a control contraction is carried out with norepinephrine at 3.2×10^-8 mole/l. After washing and stabilizing the preparation, the compound to be tested is added to the bath. Norepinephrine is added 5 minutes after the compound tested, and inhibition of the contraction induced by norepinephrine is measured. Next, inhibition of the contraction induced by norepinephrine is evaluated a second and third time in the presence of increasing concentrations of the compound tested.

[4] = test system: male NMRI mice; assay: Toxicity, Irwin's test; format: in vivo; conditions: intraperitoneal
Protocol: The toxicity of the compounds of the invention has been determined in male NMRI mice by means of Irwin's test (S. Irwin, Psychopharmacologia (Berl.), 13, (1968), 222-257).
Progressive doses of the product studied are administered intraperitoneally to groups of three mice until a lethal dose is reached (dose causing the death of two out of three animals in 48 hours). It follows from this Table that the compounds of the invention are not very toxic.

[5] = 0.5 h, read-out: ΔPa (maximum lowering of arterial pressure)
[6] = 0.5 h, read-out: ΔT3 (anti-ischemic effect: change in elevation of the T wave, occlusion 3 vs occlusion 2)
[7] = 1 h, read-out: ΔPb (maximum lowering of arterial pressure)
[8] = 1 h, read-out: ΔT4 (anti-ischemic effect: change in elevation of the T wave, occlusion 4 vs occlusion 2)

| SMILES | change in vivo at 3 µmol/kg [1, 5] | change in vivo at 3 µmol/kg [1, 6] | change in vivo at 3 µmol/kg [1, 7] | change in vivo at 3 µmol/kg [1, 8] | IC30 (concentration that reduces by 30% the intensity of the contraction of the muscle) [2] | IC30 [3] | Lethal dose (dose causing the death of two out of three animals in 48 hours) [4] | other results |
| --- | --- | --- | --- | --- | --- | --- | --- | --- |
| COc1ccc2c(c1)CCCC2c1c[nH]cn1 (single isomer, unassigned; (+)) [Compound A, (+)-4-(1,2,3,4-tetrahydro-6-methoxy-1-naphthalenyl)-1H-imidazole] | -32% | -80% | -28% | -33% | 30 nM | 21 nM | 228.3 mg/kg | – |
| Oc1ccc2c(c1)CCCC2c1c[nH]cn1 (single isomer, unassigned; (+)) [Compound D, (+)-5,6,7,8-tetrahydro-5-(1H-imidazol-4-yl)-2-naphthalenol] | – | – | – | – | 1.8 nM | 420 nM | > 68.6 mg/kg | change in vivo at 1 µmol/kg [1, 5]: -30%; change in vivo at 1 µmol/kg [1, 6]: -50%; change in vivo at 1 µmol/kg [1, 7]: -17%; change in vivo at 1 µmol/kg [1, 8]: -31% |
| Cc1cccc2c1CCCC2c1c[nH]cn1 (stereo not drawn) [Compound B, 4-(1,2,3,4-tetrahydro-5-methyl-1-naphthalenyl)-1H-imidazole] | -33% | -48% | -16% | -29% | 0.88 nM | 33 nM | > 67.9 mg/kg | – |
| COc1ccc2c(c1)CCC2c1c[nH]cn1 (stereo not drawn) [Compound C, 4-(2,3-dihydro-5-methoxy-1H-inden-1-yl)-1H-imidazole] | -44% | -52% | -43% | -66% | 32 nM | 100 nM | 214.3 mg/kg | – |
| COc1cccc2c1CCCC2c1c[nH]cn1 (stereo not drawn) [Compound E, 4-(1,2,3,4-tetrahydro-5-methoxy-1-naphthalenyl)-1H-imidazole] | – | – | – | – | 1.7 nM | 460 nM | 127.8 mg/kg | change in vivo at 1 µmol/kg [1, 5]: -45%; change in vivo at 1 µmol/kg [1, 6]: -31%; change in vivo at 1 µmol/kg [1, 7]: -20%; change in vivo at 1 µmol/kg [1, 8]: -13% |
| Cl.Oc1cccc2c1CCCC2c1c[nH]cn1 (stereo not drawn) [Compound F, 5,6,7,8-tetrahydro-5-(1H-imidazol-4-yl)-1-naphthalenol hydrochloride] | -32% | -64% | -36% | -59% | 3.7 nM | 230 nM | 214.3 mg/kg | – |
| Cc1ccc2c(c1)CCCC2c1c[nH]cn1 (stereo not drawn) [Compound G, 4-(1,2,3,4-tetrahydro-6-methyl-1-naphthalenyl)-1H-imidazole] | -22% | -24% | -14% | -16% | 30 nM | 72 nM | 118.9 mg/kg | – |
| Cl.Oc1cc2c(cc1O)C(c1c[nH]cn1)CCC2 (stereo not drawn) [Compound K, 5,6,7,8-tetrahydro-5-(1H-imidazol-4-yl)-2,3-naphthalenediol hydrochloride] | -29% | -49% | -41% | -47% | 16 nM | – | > 85.4 mg/kg | – |
| NC(=O)c1cccc(Cc2c[nH]cn2)c1O [Mivazerol, 2-hydroxy-3-[(1H-imidazol-4-yl)methyl]benzamide hydrochloride, reference compound] | -1% | -34% | -6% | -22% | – | – | – | – |
| Cc1cc(C(C)(C)C)c(O)c(C)c1CC1=NCCN1 [Oxymetazoline, 3-[(4,5-dihydro-1H-imidazol-2-yl)methyl]-6-(1,1-dimethylethyl)-2,4-dimethylphenol, reference compound] | – | – | – | – | 12 nM | – | – | change in vivo at 3 µmol/kg ([1]; 0.5 h, i.v. bolus, 3.2 × 10^-8 mole/kg, 30 minutes after administration, read-out: ΔT3 (anti-ischemic effect: change in elevation of the T wave, occlusion 3 vs occlusion 2)): -45%; change in vivo at 3 µmol/kg ([1]; 1 h, i.v. bolus, 3.2 × 10^-8 mole/kg, 60 minutes after administration, read-out: ΔT4 (anti-ischemic effect: change in elevation of the T wave, occlusion 4 vs occlusion 2)): -38%; change in vivo at 3 µmol/kg ([1]; 1 h, i.v. bolus, 3.2 × 10^-8 mole/kg, between 30 and 60 minutes after injection, read-out: ΔPb (maximum lowering of arterial pressure)): 0% |
| COc1cc2nc(N3CCN(C(=O)c4ccco4)CC3)nc(N)c2cc1OC [Prazosin, 1-(4-amino-6,7-dimethoxy-2-quinazolinyl)-4-(2-furanylcarbonyl)piperazine, reference compound] | – | – | – | – | – | 0.23 nM | – | anti-ischemic effect, in words ([1]; i.v., Table I): absence of a significant anti-ischemic effect |
| CC(C)NCC(O)COc1cccc2ccccc12 (stereo not drawn) [Propranolol, 1-[(1-methylethyl)amino]-3-(1-naphthalenyloxy)-2-propanol, reference compound] | – | – | – | – | – | – | – | change in vivo at 3 µmol/kg ([1]; 0.5 h, i.v. bolus, 3.2 × 10^-6 mole/kg, 30 minutes after administration, read-out: ΔT3 (anti-ischemic effect: change in elevation of the T wave, occlusion 3 vs occlusion 2)): -21%; change in vivo at 3 µmol/kg ([1]; 0.5 h, i.v. bolus, 3.2 × 10^-6 mole/kg, between 5 and 30 minutes after injection, read-out: ΔPa (maximum lowering of arterial pressure)): 7%; change in vivo at 3 µmol/kg ([1]; 1 h, i.v. bolus, 3.2 × 10^-6 mole/kg, 60 minutes after administration, read-out: ΔT4 (anti-ischemic effect: change in elevation of the T wave, occlusion 4 vs occlusion 2)): -30%; change in vivo at 3 µmol/kg ([1]; 1 h, i.v. bolus, 3.2 × 10^-6 mole/kg, between 30 and 60 minutes after injection, read-out: ΔPb (maximum lowering of arterial pressure)): 5% |
